# From the supplement of paper PMC11451515
# System: SEM cells
# Test: cell viability relative to DMSO control; higher = less cytotoxic
# Conditions: 48 h
# Outline: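 In 1536-well plates, 5 μl of leukemia cells were seeded per well: 500 cells/well for NOMO1 or SEM and 1000 cells/well for P12-Ichikawa. Each line had first been adapted for at least four passages in each medium. Library compounds in DMSO were pin-dosed at 11 threefold concentrations between 47 μM and 0.79 nM, and CellTiter-Glo One luminescence was read after 48 h at 37°C. Viability is a per-plate percentage relative to DMSO wells, with cell-free wells as background.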
# [1] = HPLM + 10% dialyzed FBS, 0.000781 µM
# [2] = HPLM + 10% dialyzed FBS, 0.00234 µM
# [3] = HPLM + 10% dialyzed FBS, 0.00702 µM
# [4] = HPLM + 10% dialyzed FBS, 0.0211 µM
# [5] = HPLM + 10% dialyzed FBS, 0.0632 µM
# [6] = HPLM + 10% dialyzed FBS, 0.19 µM
# [7] = HPLM + 10% dialyzed FBS, 0.569 µM
# [8] = HPLM + 10% dialyzed FBS, 1.71 µM
# [9] = HPLM + 10% dialyzed FBS, 5.12 µM
# [10] = HPLM + 10% dialyzed FBS, 15.4 µM
# [11] = HPLM + 10% dialyzed FBS, 46.1 µM
# [12] = RPMI 5 mM glucose + 10% FBS, 0.000781 µM
# [13] = RPMI 5 mM glucose + 10% FBS, 0.00234 µM
# [14] = RPMI 5 mM glucose + 10% FBS, 0.00702 µM
# [15] = RPMI 5 mM glucose + 10% FBS, 0.0211 µM
# [16] = RPMI 5 mM glucose + 10% FBS, 0.0632 µM
# [17] = RPMI 5 mM glucose + 10% FBS, 0.19 µM
# [18] = RPMI 5 mM glucose + 10% FBS, 0.569 µM
# [19] = RPMI 5 mM glucose + 10% FBS, 1.71 µM
# [20] = RPMI 5 mM glucose + 10% FBS, 5.12 µM
# [21] = RPMI 5 mM glucose + 10% FBS, 15.4 µM
# [22] = RPMI 5 mM glucose + 10% FBS, 46.1 µM
# [23] = RPMI 5 mM glucose + 10% dialyzed FBS, 0.000781 µM
# [24] = RPMI 5 mM glucose + 10% dialyzed FBS, 0.00234 µM
# [25] = RPMI 5 mM glucose + 10% dialyzed FBS, 0.00702 µM
# [26] = RPMI 5 mM glucose + 10% dialyzed FBS, 0.0211 µM
# [27] = RPMI 5 mM glucose + 10% dialyzed FBS, 0.0632 µM
# [28] = RPMI 5 mM glucose + 10% dialyzed FBS, 0.19 µM
# [29] = RPMI 5 mM glucose + 10% dialyzed FBS, 0.569 µM
# [30] = RPMI 5 mM glucose + 10% dialyzed FBS, 1.71 µM
# [31] = RPMI 5 mM glucose + 10% dialyzed FBS, 5.12 µM
# [32] = RPMI 5 mM glucose + 10% dialyzed FBS, 15.4 µM
# [33] = RPMI 5 mM glucose + 10% dialyzed FBS, 46.1 µM
SMILES,cell viability [1],cell viability [2],cell viability [3],cell viability [4],cell viability [5],cell viability [6],cell viability [7],cell viability [8],cell viability [9],cell viability [10],cell viability [11],cell viability [12],cell viability [13],cell viability [14],cell viability [15],cell viability [16],cell viability [17],cell viability [18],cell viability [19],cell viability [20],cell viability [21],cell viability [22],cell viability [23],cell viability [24],cell viability [25],cell viability [26],cell viability [27],cell viability [28],cell viability [29],cell viability [30],cell viability [31],cell viability [32],cell viability [33]
COc1cc(Nc2c(C#N)cnc3cc(OCCCN4CCN(C)CC4)c(OC)cc23)c(Cl)cc1Cl,87.1%,96.8%,114%,113%,111%,95%,109%,54.6%,13%,5.77%,6.12%,72.5%,68.2%,75.7%,74.8%,73.1%,84.7%,68.1%,44%,7.02%,3.9%,4.3%,95.9%,89.4%,103%,105%,96.1%,98%,100%,62.1%,17.5%,5.92%,5.77%
C[C@]12Cc3cn[nH]c3C[C@@H]1CC[C@@H]1[C@@H]2CC[C@@]2(C)[C@H]1CC[C@]2(C)O,108%,105%,105%,79.7%,100%,88.6%,83.6%,75.8%,90.4%,97.4%,88.1%,102%,108%,104%,119%,116%,104%,118%,104%,99.4%,114%,101%,103%,94.9%,106%,123%,110%,103%,108%,107%,111%,105%,95.8%
COc1cc([C@@H](CC(=O)O)c2ccc(C)c(CN3C[C@@H](C)Oc4ccccc4[S+]3(=O)[O-])c2)cc2nnn(C)c12,97.2%,104%,104%,108%,106%,103%,108%,102%,87%,88.4%,70.2%,115%,111%,133%,134%,87%,82.6%,83.7%,96.6%,67.5%,18.1%,14.5%,116%,116%,110%,104%,104%,78.5%,83.2%,89.7%,74.3%,64.4%,53.9%
NC(=O)Nc1sc(-c2ccc(F)cc2)cc1C(N)=O,99.3%,113%,115%,110%,96.7%,125%,119%,103%,90.5%,61.7%,18.3%,,,,,,,,,,,,112%,116%,117%,103%,125%,109%,106%,97.2%,75.1%,55.9%,11%
